We go through 23 compounds from ChEMBL document CHEMBL1140569, “Synthesis and structure-activity relationships of thieno[2,3-b]pyrroles as antagonists of the GnRH receptor” (Bioorg Med Chem Lett, 2007).

Series [1] in a line: Solubility in 0.1 M phosphate buffer at pH 7.4.
A further series deals with Cytochrome P450 3A4 (Homo sapiens, UniProt P08684). The series is described as follows: Inhibition of human CYP3A4.
The nature of series [2]: AUC in rat at 10 mg/kg, po. Conditions: plasma. It counts as ADME, organism-based. Also noted: dose 10 mg/kg, route oral.
Series [3] is described as follows: Plasma clearance in rat. The series is classed as ADME, organism-based.
Another series relates to Rattus norvegicus. Put plainly: Inhibition of LH production in castrated AP Wistar Han rat model at 75 mg/kg, po after 12 hrs by radioimmunoassay. It counts as functional, organism-based. Also noted: dose 75 mg/kg.
The nature of series [4]: AUC in rat at 1 mg/kg, po. It counts as ADME, organism-based. Also noted: dose 1 mg/kg, route oral. The conditions noted are these: plasma.
A short description of series [5]: Oral bioavailability in rat. It counts as ADME, organism-based. Conditions: in vivo.

Molecules are shown by their SMILES. In brackets after ≈: the same amount, converted by molar mass. Activity calls are given as the source filed them. The calls are words filed in the database; no cut-off is given here. A value given as a limit tells only on which side of the number the result lay.

Sequence of Cytochrome P450 3A4 (P08684 whole entry): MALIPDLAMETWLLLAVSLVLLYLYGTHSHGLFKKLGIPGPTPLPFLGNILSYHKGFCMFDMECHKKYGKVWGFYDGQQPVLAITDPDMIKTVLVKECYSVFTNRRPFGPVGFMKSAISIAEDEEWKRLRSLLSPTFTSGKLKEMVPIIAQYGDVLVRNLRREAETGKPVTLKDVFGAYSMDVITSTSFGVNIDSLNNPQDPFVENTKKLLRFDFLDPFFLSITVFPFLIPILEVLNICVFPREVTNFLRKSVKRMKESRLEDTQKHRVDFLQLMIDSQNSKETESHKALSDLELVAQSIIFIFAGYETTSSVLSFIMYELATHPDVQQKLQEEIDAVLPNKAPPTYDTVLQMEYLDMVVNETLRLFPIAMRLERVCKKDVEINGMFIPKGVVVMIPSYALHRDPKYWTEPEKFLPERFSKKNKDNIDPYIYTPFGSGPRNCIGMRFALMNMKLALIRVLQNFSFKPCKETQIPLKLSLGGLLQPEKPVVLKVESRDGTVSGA

By solubility is commonly meant the concentration that dissolves in the medium under given conditions. Lower therefore signals little dissolved substance. The IC50 is the point on the concentration scale where inhibition reaches its midpoint. Higher therefore signals weaker potency. `CC(=O)N1CCN(CC(O)CN2CCN(CCc3c(-c4cc(C)cc(C)c4)[nH]c4sc(C(C)(C)C(=O)N5C6CCC5CC6)cc34)CC2)CC1` (stereo not drawn) gave a solubility in series [1] of 236 µM (≈ 163 µg/mL). At Cytochrome P450 3A4, this compound showed an IC50 of 6 µM.
For `Cc1cc(C)cc(-c2[nH]c3sc(C(C)(C)C(=O)N4C5CCC4CC5)cc3c2[C@H](C)CNC(=O)N2CCC(c3ccncc3)CC2)c1`, the solubility in series [1] amounted to 0.6 µM (≈ 0.383 µg/mL).
A word on the AUC: it is the area under the concentration-time curve, a measure of exposure. Low readings indicate less exposure, high ones more exposure. By clearance is commonly meant the rate of elimination divided by the concentration. A lower clearance goes with a low capacity for elimination. Compound `Cc1cc(C)cc(-c2[nH]c3sc(C(C)(C)C(=O)N4C5CCC4CC5)cc3c2CCN2CCC(C(=O)N3CCOCC3)CC2)c1` yielded an AUC in series [2] of 27.1 µM·h. The same compound yielded a clearance in series [3] of 4 mL/min/kg. For the same compound, in the series with Rattus norvegicus, the result was Active.
Turning to `Cc1cc(C)cc(-c2[nH]c3sc(C(C)(C)C(=O)N4C5CCC4CC5)cc3c2CCN2CCC(N3CCOCC3)CC2)c1`, the AUC in series [4] was determined as 0.006 µM·h.
`Cc1cc(C)cc(-c2[nH]c3sc(C(C)(C)C(=O)N4C5CCC4CC5)cc3c2CCN2CCN(CC(O)CN3CCNCC3)CC2)c1` (stereo not drawn) registered a solubility in series [1] of 425 µM (≈ 275 µg/mL). This compound also returned an IC50 against Cytochrome P450 3A4 of more than 10 µM.
Compound `Cc1cc(C)cc(-c2[nH]c3sc(C(C)(C)C(=O)N4C5CCC4CC5)cc3c2[C@H](C)CNC(=NC(=O)OC(C)C)N2CCC(c3ccncc3)C2)c1` (stereo partly drawn) gave a solubility in series [1] of 0.8 µM (≈ 0.567 µg/mL).
With `Cc1cc(C)cc(-c2[nH]c3sc(C(C)(C)C(=O)N4C5CCC4CC5)cc3c2CCN2CCN(CC(=O)N(C)C)CC2)c1`, the concentration in solution in series [1] (solubility) came to 104 µM (≈ 61.3 µg/mL). This solubility lies about 130-fold higher than the previous one.
As to `Cc1cc(C)cc(-c2[nH]c3sc(C(C)(C)C(=O)N4CCCC4)cc3c2[C@H](C)CNC(=O)N2CCC(c3ccccc3)C2)c1` (stereo partly drawn), the solubility in series [1] turned out to be 56 µM (≈ 33.4 µg/mL).
On to `Cc1cc(C)cc(-c2[nH]c3sc(C(C)(C)C(=O)N4C5CCC4CC5)cc3c2CCN2CCC(CC(=O)N3CCOCC3)CC2)c1`, for which, in series [4], the AUC was 0.041 µM·h.
Regarding `Cc1cc(C)cc(-c2[nH]c3sc(C(C)(C)C(=O)N4C5CCC4CC5)cc3c2CCN2CCC(OCC(=O)N3CCOCC3)CC2)c1`, the AUC in series [2] was 0.526 µM·h.
Broadly, the bioavailability is the share of a dose that reaches the circulation, judged against a reference dose that is usually intravenous. Compound `COC1CCN(C(=O)C2CCN(CCc3c(-c4cc(C)cc(C)c4)[nH]c4sc(C(C)(C)C(=O)N5C6CCC5CC6)cc34)CC2)CC1` showed an AUC in series [2] of 358 µM·h. The clearance in series [3] was 0.1 mL/min/kg. The compound further gave a bioavailability in series [5] of 35%.
Take `COC(=O)/N=C(/NC[C@@H](C)c1c(-c2cc(C)cc(C)c2)[nH]c2sc(C(C)(C)C(=O)N3C4CCC3CC4)cc12)N1CCC(c2ccncc2)C1` (stereo partly drawn): the solubility in series [1] was 4.6 µM (≈ 3.13 µg/mL).
As to `Cc1cc(C)cc(-c2[nH]c3sc(C(C)(C)C(=O)N4C5CCC4CC5)cc3c2CCN2CCN(CC(=O)N3CCOCC3)CC2)c1`, the clearance in series [3] was 153 mL/min/kg. Besides, in series [5], the bioavailability amounted to 4%.
As to `Cc1cc(C)cc(-c2[nH]c3sc(C(C)(C)C(=O)N4C5CCC4CC5)cc3c2CCN2CCC(CNC(=O)N3CCOCC3)CC2)c1`, the AUC in series [4] was 0.018 µM·h.
`CCN(CC)CCOC1CCN(CCc2c(-c3cc(C)cc(C)c3)[nH]c3sc(C(C)(C)C(=O)N4C5CCC4CC5)cc23)CC1` yielded an area under the curve (AUC) in series [4] of 0.002 µM·h. Against the preceding compound, the AUC is about 9-fold lower.
In the case of `Cc1cc(C)cc(-c2[nH]c3sc(C(C)(C)C(=O)N4C5CCC4CC5)cc3c2CCN2CCC(C(=O)N3CCOCC3)C(C)C2)c1` (stereo not drawn), in series [2], the AUC was found to be 0.254 µM·h.
In series [2], `Cc1cc(C)cc(-c2[nH]c3sc(C(C)(C)C(=O)N4C5CCC4CC5)cc3c2CCN2CCC(C(=O)N3CCCC(O)C3)CC2)c1` (stereo not drawn) yielded an AUC of 39.3 µM·h. In series [3], the clearance was determined as 1.3 mL/min/kg.
Compound `Cc1cc(C)cc(-c2[nH]c3sc(C(C)(C)C(=O)N4C5CCC4CC5)cc3c2[C@H](C)CN/C(=N/C(=O)OC(C)C)N2CCC(c3ccncc3)CC2)c1` returned a solubility in series [1] of 1.4 µM (≈ 1.01 µg/mL).
For `Cc1cc(C)cc(-c2[nH]c3sc(C(C)(C)C(=O)N4C5CCC4CC5)cc3c2C(=O)CN2CCC(C(=O)N3CCOCC3)CC2)c1`, in series [4], the AUC is 0.36 µM·h.
`COC1CCN(C(=O)C2CCN(CCc3c(-c4cc(C)cc(C)c4)[nH]c4sc(C(C)(C)C(=O)N5C6CCC5CC6)cc34)CC2)C1` (stereo not drawn) showed an AUC in series [2] of 190 µM·h. For the same compound, the clearance in series [3] was found to be 0.8 mL/min/kg. The bioavailability in series [5] turned out to be 38%.
`Cc1cc(C)cc(-c2[nH]c3sc(C(C)(C)C(=O)N4C5CCC4CC5)cc3c2C(=O)CN2CCN(CC(=O)N3CCCC3)CC2)c1`: the solubility in series [1] stood at 947 µM (≈ 596 µg/mL).
`CC(=O)NC1CCN(C(=O)CN2CCN(CCc3c(-c4cc(C)cc(C)c4)[nH]c4sc(C(C)(C)C(=O)N5C6CCC5CC6)cc34)CC2)C1` (stereo not drawn) came in with a solubility in series [1] of 107 µM (≈ 72 µg/mL).
Same read-out and setting: under `Cc1cc(C)cc(-c2[nH]c3sc(C(C)(C)C(=O)N4C5CCC4CC5)cc3c2CN2CCN(CC(=O)N3CCCC3)CC2)c1` stands 2 µM (≈ 1.2 µg/mL).
